The values below come from ChEMBL document CHEMBL4616683, “Inhibitors of Hypoxia-Inducible Factors as Treatment for Cancer” (ACS Med Chem Lett, 2020).

Experiment [1] has as its target T1, Endothelial PAS domain-containing protein 1 (Homo sapiens, UniProt Q99814).
Description: Inhibition of human recombinant His6Gb1-tagged HIF2alpha PAS B domain (240 to 350 residues)/human recombinant His6/FLAG-tagged ARNT PAS B domain (356 to 470 residues) interaction incubated for 15 mins by AlphaScreen assay
Experiment [2] concerns the target T1, Endothelial PAS domain-containing protein 1. This is another data set of the same source.
Description: Inhibition of HIF2-alpha in human 786-0 cells harboring HRE-Luc2P reporter construct incubated for 48 hrs by ONE-Glo EX reagent based luminescence assay

T1 sequence (Q99814 whole entry, the tested form may be a part): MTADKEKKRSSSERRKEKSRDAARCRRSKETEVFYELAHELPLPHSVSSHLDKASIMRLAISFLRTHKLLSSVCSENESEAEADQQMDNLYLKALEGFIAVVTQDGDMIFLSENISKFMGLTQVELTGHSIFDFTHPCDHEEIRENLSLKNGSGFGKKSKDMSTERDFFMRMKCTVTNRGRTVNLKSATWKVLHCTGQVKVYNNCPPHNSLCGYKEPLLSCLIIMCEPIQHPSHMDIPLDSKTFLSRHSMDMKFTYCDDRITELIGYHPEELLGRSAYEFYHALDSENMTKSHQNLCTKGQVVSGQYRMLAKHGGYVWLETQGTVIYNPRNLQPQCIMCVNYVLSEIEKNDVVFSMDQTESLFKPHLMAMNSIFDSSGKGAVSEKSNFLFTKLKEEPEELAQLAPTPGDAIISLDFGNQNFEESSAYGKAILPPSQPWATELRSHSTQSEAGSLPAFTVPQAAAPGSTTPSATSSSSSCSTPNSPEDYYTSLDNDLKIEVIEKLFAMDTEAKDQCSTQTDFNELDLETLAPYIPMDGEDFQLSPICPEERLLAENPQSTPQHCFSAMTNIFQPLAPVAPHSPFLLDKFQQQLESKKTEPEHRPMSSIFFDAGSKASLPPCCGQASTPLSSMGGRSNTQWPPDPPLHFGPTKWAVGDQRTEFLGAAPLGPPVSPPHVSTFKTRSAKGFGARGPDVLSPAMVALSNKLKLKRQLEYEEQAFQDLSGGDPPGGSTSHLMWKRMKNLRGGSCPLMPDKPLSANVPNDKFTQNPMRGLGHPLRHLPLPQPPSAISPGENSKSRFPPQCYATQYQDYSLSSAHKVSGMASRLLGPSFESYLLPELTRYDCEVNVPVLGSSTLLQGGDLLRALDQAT

As usually defined, the IC50 is the midpoint of a concentration-inhibition curve. Lower therefore signals greater potency in that assay. For `Cn1nc(C(F)(F)F)cc1-c1sc(S(C)(=O)=O)c2c1CCC(F)(F)[C@H]2O`, the IC50 in experiment [1] and in experiment [2] was over 1000 nM throughout.
